target: FABP4 (Homo sapiens, UniProt P15090); assay: TdF-based ligand binding affinity (FABP inhibitory activity assay); details: TdF-based ligand binding affinity constant
Excerpt: Theoretical basis for TdF-based ligand binding affinity constant
The derivation of TdF-based ligand binding affinity constant (Kd) followed closely those previously formulated by Brandts and Lin, Biochemistry 29 (1990) 6927-6940. In brief, the binding constant of the ligand at the Tm is expressed as below: […]
where T0 is the midpoint of unfolding for unliganded protein and Tm is the midpoint of unfolding in presence of ligand. [LTm] is free ligand at Tm. The ΔHu and ΔCpu are the enthalpy of unfolding and heat capacity change of unfolding for the protein respectively. The ΔCPu is proportional to the size of protein and is an approximate quantity in the above equation (empirically, ΔCpu=(MW of protein/115)*14 cal/mol*K). Following algorithm derived by Mayhood et al, (Analytical Biochemistry 345 (2005) 187-197), the T0 and ΔHu can be determined separately from nonlinear regression fitting the temperature dependent protein alone curve to the following equation: […]
The nonlinear regression fitting in general readily reaches convergence by properly constraining the initial values for the fitting parameters (e.g. the initial “guess” for the ΔHu was constrained to 120 kcal/mol; initial Yn and mr, were set to 1 and zero to best represent the melting curve along the low temperature region; negative slope of −0.5 was initially chosen for mu; initial Tm was also constrained to 50° C.).
(see Brandts et al and Mayhood et al, shown above) where ΔHL (T) is the van't Hoff enthalpy of ligand binding at temperature T and ΔCpL is the heat capacity upon ligand binding. For simplicity, the ΔCpL and ΔHL (T) were set to zero and −7 kcal/mol respectively. (The ΔCpL accounts for minimal portion of total protein-ligand binding energetics and is therefore set to zero (For example, see Hossein Naghibi et al, Proc. Natl. Acad. Sci. 92, 5597-5599 (1995), where ΔCpL was estimated to ˜2% of ΔHL at 25° C. obtained from calorimetric study of binding RNase A and 2′-CMP)).

Chain of FABP4 (P15090 whole entry): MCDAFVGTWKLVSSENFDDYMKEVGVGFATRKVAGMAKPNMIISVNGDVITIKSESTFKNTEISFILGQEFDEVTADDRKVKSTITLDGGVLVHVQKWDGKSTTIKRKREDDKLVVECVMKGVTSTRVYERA

First: O=C(c1nc2ccc(S(=O)(=O)C(F)(F)F)cc2nc1O)N1CCCC1Cc1cccc(Cl)c1 (racemic) [Compound 1-25, (+/−)-[2-(3-Chlorobenzyl)pyrrolidin-1-yl][3-hydroxy-6-(trifluoromethylsulfonyl)quinoxalin-2-yl]methanone]
Second: O=C(c1nc2ccc(C(F)(F)F)cc2nc1O)N1CCCC1Cc1cccc(Cl)c1 (racemic) [Compound 1-39, (+/−)-[2-(3-Chlorobenzyl)pyrrolidin-1-yl][3-hydroxy-6-(trifluoromethyl)quinoxalin-2-yl]methanone]
The Kd of the first is 2-fold lower: 0.1 µM for the first, 0.2 µM for the second.

First: COc1ccc2nc(O)c(C(=O)N3CCCC3Cc3cccc(Cl)c3)nc2c1 (racemic) [Compound 1-27, (+/−)-[2-(3-Chlorobenzyl)pyrrolidin-1-yl](3-hydroxy-7-methoxyquinoxalin-2-yl)methanone]
Second: O=C(c1nc2cc(Br)ccc2nc1O)N1CCCC1Cc1cccc(Cl)c1 (racemic) [Compound 1-37, (+/−)-(7-Bromo-3-hydroxyquinoxalin-2-yl)[2-(3-chlorobenzyl)pyrrolidin-1-yl]methanone]
The Kd of the first is 5.8-fold higher: 4.94 µM for the first, 0.85 µM for the second.

Compared with O=C(c1nc2cccc(C(F)(F)F)c2nc1O)N1CCCC1Cc1cccc(Cl)c1 (racemic) [Compound 1-30, (+/−)-[2-(3-Chlorobenzyl)pyrrolidin-1-yl][3-hydroxy-5-(trifluoromethyl)quinoxalin-2-yl]methanone], O=C(c1nc2ccccc2nc1O)N1CCCC1Cc1cccc(Cl)c1 (stereo not shown) [Compound 1-99] is 470-fold higher in Kd: 0.002 µM for the first, 0.95 µM for the second.

Going from N#Cc1ccc2nc(C(=O)N3CCCC3Cc3cccc(Cl)c3)c(O)nc2c1 (racemic) [Compound 1-31, (+/−)-2-[2-(3-Chlorobenzyl)pyrrolidine-1-carbonyl]-3-hydroxyquinoxaline-6-carbonitrile] to O=C(c1nc2ncccc2nc1O)N1CCCC1Cc1cccc(Cl)c1 (racemic) [Compound 1-32, (+/−)-[2-(3-Chlorobenzyl)pyrrolidin-1-yl](2-hydroxypyrido[2,3-b]pyrazin-3-yl)methanone], the Kd falls from 0.5 µM to 0.3 µM (1.7-fold).

Compared with O=C(c1nc2cccnc2nc1O)N1CCCC1Cc1cccc(Cl)c1 (racemic) [Compound 1-33, (+/−)-[2-(3-Chlorobenzyl)pyrrolidin-1-yl](3-hydroxypyrido[3,2-b]pyrazin-2-yl)methanone], O=C(c1nc2ccccc2nc1O)N1CCCC1Cc1cccc(F)c1 (racemic) [Compound 1-51, (+/−)-[2-(3-Fluorobenzyl)pyrrolidin-1-yl](3-hydroxyquinoxalin-2-yl)methanone] is 3-fold higher in Kd: 0.6 µM for the first, 1.8 µM for the second. The first binds more tightly here.

Going from COc1cc2nc(O)c(C(=O)N3CCCC3Cc3cccc(Cl)c3)nc2cc1OC (racemic) [Compound 1-38, (+/−)-[2-(3-Chlorobenzyl)pyrrolidin-1-yl](3-hydroxy-6,7-dimethoxyquinoxalin-2-yl)methanone] to Cc1ccc(CC2CCCN2C(=O)c2nc3ccccc3nc2O)cc1C (racemic) [Compound 1-42, (+/−)-[2-(3,4-Dimethylbenzyl)pyrrolidin-1-yl](3-hydroxyquinoxalin-2-yl)methanone], the Kd falls from 22.5 µM to 1.34 µM (17-fold). The second binds more tightly here.

First: CCC(c1ccccc1)C1CCCN1C(=O)c1nc2ccccc2nc1O (racemic) [Compound 1-48, (+/−)-(3-Hydroxyquinoxalin-2-yl)[2-(1-phenylpropyl)pyrrolidin-1-yl]methanone]
Second: O=C(c1nc2ccccc2nc1O)N1CCCC1Cc1ccccc1 (stereo not shown) [Compound 1-116]
The Kd of the first is 2.6-fold higher: 11.9 µM for the first, 4.6 µM for the second. The second binds more tightly here.

Going from O=C(c1nc2ccccc2nc1O)N1CCCC1Cc1c(F)cccc1Cl (racemic) [Compound 1-52, (+/−)-[2-(2-Chloro-6-fluorobenzyl)pyrrolidin-1-yl](3-hydroxyquinoxalin-2-yl)methanone] to O=C(c1nc2ccccc2nc1O)N1CCCC1Cc1ccccc1Cl (stereo not shown) [Compound 1-115], the Kd falls from 5.68 µM to 1.8 µM (3.2-fold). The second binds more tightly here.

Going from O=C(c1nc2ccccc2nc1O)N1CCCC1COc1ccc(F)cc1 (racemic) [Compound 1-55, (+/−)-{2-[(4-fluorophenoxy)methyl]pyrrolidin-1-yl}(3-hydroxyquinoxalin-2-yl)methanone] to O=C(c1nc2ccccc2nc1O)N1CCCC1COc1ccc(F)c(Cl)c1 (racemic) [Compound 1-64, (+/−)-{2-[(3-Chloro-4-fluorophenoxy)methyl]pyrrolidin-1-yl}(3-hydroxyquinoxalin-2-yl)methanone], the Kd falls from 23 µM to 15.1 µM (1.5-fold). The second binds more tightly here.

Compared with O=C(c1nc2ccccc2nc1O)N1CCCCC1Cc1ccccc1 (racemic) [Compound 1-72, (+/−)-(2-Benzylpiperidin-1-yl)(3-hydroxyquinoxalin-2-yl)methanone], O=C(c1nc2ccccc2nc1O)N1CCCCC1Cc1cccc(F)c1 (racemic) [Compound 1-74, (+/−)-[2-(3-Fluorobenzyl)piperidin-1-yl](3-hydroxyquinoxalin-2-yl)methanone] is 3.2-fold lower in Kd: 14.2 µM for the first, 4.4 µM for the second.

COc1ccccc1CC1CCCCN1C(=O)c1nc2ccccc2nc1O (racemic) [Compound 1-73, (+/−)-(3-Hydroxyquinoxalin-2-yl)[2-(2-methoxybenzyl)piperidin-1-yl]methanone] and O=C(c1nc2ccccc2nc1O)N1CCCC1Cc1ccccc1F (stereo not shown) [Compound 1-153] are within 1.5-fold of each other in Kd: 2.25 µM for the first, 2.9 µM for the second.

Compared with O=C(c1nc2ccccc2nc1O)N1CCCCC1Cc1cccc(C(F)(F)F)c1 (racemic) [Compound 1-75, (+/−)-(3-Hydroxyquinoxalin-2-yl) {2-[3-(trifluoromethyl)benzyl]piperidin-1-yl}methanone], Cc1cccc(CC2CCCCCN2C(=O)c2nc3ccccc3nc2O)c1 (racemic) [Compound 1-91, (+/−)-(3-Hydroxyquinoxalin-2-yl)[2-(3-methylbenzyl)azepan-1-yl]methanone] is 1.9-fold higher in Kd: 0.98 µM for the first, 1.84 µM for the second. The first binds more tightly here.

O=C(c1nc2ccccc2nc1O)N1CCCCC1Cc1ccc(F)cc1 (racemic) [Compound 1-79, (+/−)-[2-(4-Fluorobenzyl)piperidin-1-yl](3-hydroxyquinoxalin-2-yl)methanone] and COc1ccc(CC2CCCCN2C(=O)c2nc3ccccc3nc2O)cc1 (racemic) [Compound 1-80, (+/−)-(3-Hydroxyquinoxalin-2-yl)[2-(4-methoxybenzyl)piperidin-1-yl]methanone] are within 1.5-fold of each other in Kd: 4.7 µM for the first, 4.76 µM for the second.

Compared with O=C(c1nc2ccccc2nc1O)N1CCCC(Cc2ccccc2)C1 (racemic) [Compound 1-83, (+/−)-(3-Benzylpiperidin-1-yl)(3-hydroxyquinoxalin-2-yl)methanone], O=C(c1nc2ccccc2nc1O)N1CCCC(Cc2cccc(F)c2)C1 (racemic) [Compound 1-86, (+/−)-[3-(3-Fluorobenzyl)piperidin-1-yl](3-hydroxyquinoxalin-2-yl)methanone] is 1.9-fold lower in Kd: 16.2 µM for the first, 8.6 µM for the second.

First: COc1cccc(CC2CCCN(C(=O)c3nc4ccccc4nc3O)C2)c1 (racemic) [Compound 1-85, (+/−)-(3-Hydroxyquinoxalin-2-yl)[3-(3-methoxybenzyl)piperidin-1-yl]methanone]
Second: O=C(c1nc2ccccc2nc1O)N1CCCC(Cc2ccc(F)cc2)C1 (racemic) [Compound 1-88, (+/−)-[3-(4-Fluorobenzyl)piperidin-1-yl](3-hydroxyquinoxalin-2-yl)methanone]
The Kd of the first is 2-fold higher: 11 µM for the first, 5.5 µM for the second. The second binds more tightly here.

O=C(c1nc2ccccc2nc1O)N1CCCCCC1Cc1ccc(Cl)cc1 (racemic) [Compound 1-93, (+/−)-[2-(4-Chlorobenzyl)azepan-1-yl](3-hydroxyquinoxalin-2-yl)methanone] and Cc1ccc(CC2CCCN2C(=O)c2nc3ccccc3nc2O)cc1 (stereo not shown) [Compound 1-117] are within 1.5-fold of each other in Kd: 9 µM for the first, 9.8 µM for the second.

First: O=C(c1nc2cc(F)cc(F)c2nc1O)N1CCC[C@H]1Cc1cc(Cl)cc(Cl)c1 [9-16, (S)-(2-(3,5-dichlorobenzyl)pyrrolidin-1-yl)(5,7-difluoro-3-hydroxyquinoxalin-2-yl)methanone]
Second: O=C(c1nc2c(F)cc(F)cc2nc1O)N1CCC[C@H]1Cc1cc(Cl)cc(Cl)c1 [9-18, (S)-(2-(3,5-dichlorobenzyl)pyrrolidin-1-yl)(6,8-difluoro-3-hydroxyquinoxalin-2-yl)methanone]
The Kd of the first is 7.1-fold lower: 0.007 µM for the first, 0.05 µM for the second. The first binds more tightly here.

O=C(c1nc2ccccc2nc1O)N1CCC[C@H]1CNc1ccccc1 [Compound 1-65, (S)-(3-Hydroxyquinoxalin-2-yl){2-[(phenylamino)methyl]pyrrolidin-1-yl}methanone] and CN(Cc1ccccc1)C(=O)c1nc2ccccc2nc1O [Compound 1-98] are within 1.5-fold of each other in Kd: 22.7 µM for the first, 28.4 µM for the second.

Compared with Cc1ccc(C(C)C)cc1N(C)C(=O)c1nc2ccccc2nc1O [Compound 1-124], CC(C)CN(C)C(=O)c1nc2ccccc2nc1O [Compound 1-140] is 2.1-fold higher in Kd: 11.3 µM for the first, 23.2 µM for the second. The first binds more tightly here.

Going from CCCN(CC1CC1)C(=O)c1nc2ccccc2nc1O [Compound 1-137] to CN(CCc1ccccc1)C(=O)c1nc2ccccc2nc1O [Compound 1-139], the Kd falls from 31 µM to 12.7 µM (2.4-fold). The second binds more tightly here.

Compared with COc1ccc(CCN(C)C(=O)c2nc3ccccc3nc2O)cc1OC [Compound 1-141], CN(CCc1cccc(Cl)c1)C(=O)c1nc2ccccc2nc1O [Compound 1-156] is 9.7-fold lower in Kd: 26.1 µM for the first, 2.7 µM for the second.

For CN(Cc1cccc(Cl)c1)C(=O)c1nc2ccccc2nc1O [Compound 1-143], the Kd was 23.1 µM.

From patent US8889683B2, “Substituted quinoxalines as inhibitors of fatty acid binding protein” (Merck Sharp & Dohme Corp., priority 2010, dated 2014)
